Reference: patent publication US20230082968A1, “EXOGENOUS NITRIC OXIDE FOR IMPROVED SUSCEPTIBILITY AND LOWERED ANTIBIOTIC RESISTANCE IN RESISTANT RESPIRATORY BACTERIA” (The University of North Carolina at Chapel Hill, priority 2020, published 2023)
Values after ≈ are worked out from the molar mass of the structure shown. “Also recorded” adds a separate entry of the source.

Assays:
[1] = test system: ATCC MRSA; assay: Nitric oxide pretreatment with planktonic bacteria; format: cell-based, Methicillin-resistant S. aureus
Description: (§1) After exposure, wells were serially diluted in sterile MilliQ water and spiral plated on TSA. Viability was assessed by colony counting.

[2] = test system: PA 229; assay: 24 h combination time kill assay; format: cell-based, P. aeruginosa; conditions: PA 229, COS/NO and tobramycin, 24 h time kill
Description: (§2) Time-kill assays were performed over 24 h in order to quantitatively probe the effect of each antibiotic-NO combination as a function of time [Belley, A. et al. Assessment by time-kill methodology of the synergistic effects of oritavancin in combination with other antimicrobial agents against Staphylococcus aureus. Antimicrob. Agents Chemother. 52, 3820-3822 (2008)]. […] Aliquots were sampled at 0, 3, 6, and 24 h, serially diluted, and logarithmically plated on TSA plates using an Eddy Jet spiral plater (IUL; Farmingdale, NY). Bacterial viability was assessed by counting the number of colonies formed with a Flash & Go colony counter (IUL; Farmingdale, NY).

[3] = test system: PA 237; assay: 24 h combination time kill assay; format: cell-based, P. aeruginosa; conditions: PA 237, COS/NO and tobramycin, 24 h time kill
Description: as §2

[4] = test system: PA 239; assay: 24 h combination time kill assay; format: cell-based, P. aeruginosa; conditions: PA 239 (tobramycin-resistant), COS/NO and tobramycin, 24 h time kill
Description: as §2

[5] = test system: PA 230; assay: 24 h combination time kill assay; format: cell-based, P. aeruginosa; conditions: PA 230 (tobramycin-resistant), COS/NO and tobramycin, 24 h time kill
Description: as §2

[6] = test system: AR 229; assay: Nitric oxide pretreatment with planktonic bacteria; format: cell-based, P. aeruginosa; conditions: AR 229, antibiotic 0.625 µg/mL, NO-pretreatment 25% MIC 4 h
Description: as §1

[7] = test system: AR 230; assay: Nitric oxide pretreatment with planktonic bacteria; format: cell-based, P. aeruginosa; conditions: AR 230, antibiotic 2000 µg/mL, NO-pretreatment 25% MIC 4 h
Description: as §1

[8] = test system: ATCC MRSA; assay: Serial passaging resistance assay; format: cell-based, Methicillin-resistant S. aureus
Description: Bacteria at a final concentration of 10^6 CFU/mL in TSB were incubated with serial dilutions of COS/NO and/or tobramycin for 24 h. Growth was assessed by measuring absorbance at 600 nm. The wells that had the highest concentration of test agent and an OD600 corresponding to more than 10^8 CFU/mL were diluted to 10^6 cfu/mL in TSB and incubated with fresh solutions of COS/NO or tobramycin for 24 h. A single passage was defined as one exposure, incubation, and subsequent dilution. Bacteria were passaged for up to 70 days.

[9] = test system: PAK biofilm; assay: Biofilm pretreatment with nitric oxide; format: cell-based, Pseudomonas aeruginosa
Description: (§3) Bacteria were cultured to a concentration of 10^8 CFU/mL in TSB and diluted to 10^6 CFU/mL in 200 µL TSB in a 96 well plate. Plates were incubated with shaking for 3 days until a non-surface attached viscous aggregate formed that was easily separated from growth medium. Biofilms (100 µL) were removed, gently injected into PBS (200 µL) to remove loosely adhered planktonic cells, and added to a sterile 96 well plate. To the wells, PBS or test agent dissolved in PBS (100 µL) was added and incubated with shaking for 24 h. The biofilm (100 µL) was removed from the well plate, added to 900 µL sterile MilliQ water, and disrupted with pipetting and vortexing. Disrupted biofilms were serially diluted and spiral plated on TSA. Viability was assessed with colony counting. The minimum biofilm eradication concentration (MBEC) was defined as the lowest concentration of test agent required to reduce viability by 5-log (i.e., 10^8 to 10^3 CFU/mL).
(§4) The biofilm was then removed from its 96 well plate, added to a new 96 well plate containing tobramycin dissolved in PBS (100 µL), and incubated for 20 h. The biofilm was disrupted in 900 µL sterile MilliQ water with pipetting and vortexing, serially diluted, and spiral plated on TSA. Viability was assessed with colony counting.

[10] = test system: ATCC S.aureus; assay: Nitric oxide pretreatment with planktonic bacteria; format: cell-based, Staphylococcus aureus
Description: as §1

[11] = test system: ATCC BCC; assay: Nitric oxide pretreatment with planktonic bacteria; format: cell-based, Burkholderia cepacia complex
Description: as §1

[12] = test system: AR 542; assay: Nitric oxide pretreatment with planktonic bacteria; format: cell-based, Klebsiella pneumoniae
Description: as §1

[13] = test system: P. aeruginosa strain K (PAK); assay: Checkerboard assay of antibiotic combinations with COS/NO; format: cell-based, Pseudomonas aeruginosa; conditions: antibiotic in combination with COS/NO, 24 h
Description: Frozen stocks of bacteria were reconstituted in TSB (3 mL) and cultured overnight. The overnight cultures of bacteria (3 mL) were inoculated into fresh TSB (30 mL) and grown to 10^8 CFU/mL. […] Inhibition was assessed with the resazurin assay and the minimum inhibitory concentration (MIC) was defined as the lowest concentration of antibacterial agent required to prevent the reduction of resazurin (i.e., color change from blue to pink).
Mol. Pharm. 7, 2289-2296 (2010)]. Briefly, bacteria at a final concentration of 10^6 CFU/mL were incubated with an array of antimicrobial combinations in TSB for 24 h at 37° C. The highest concentration for each antimicrobial tested was 2 × MIC. […] The fractional […] concentration index (ΣFIC) was calculated using Equation 1, reported by Elion et al. [Elion, G. B., Singer, S. & Hitchings, G. H. Antagonists of Nucleic Acid Derivatives: VIII. Synergism in combinations of biochemically related antimetabolites. […] Checkerboard assays were conducted in at least duplicate for each bacterial strain and for each drug combination.
Characterization of the combinations was performed using the following criteria based on ΣFIC values: < 0.25 is highly synergistic; ≤ 0.5 is synergistic; ≤ 1 is additive; ≤ 4 is indifferent; > 4 is antagonistic.

[14] = test system: P. aeruginosa biofilms; assay: Biofilm pretreatment with nitric oxide, all tested biofilms; format: cell-based; conditions: all tested P. aeruginosa biofilms incl. tobramycin-resistant strains, COS/NO at 25% MBEC for 4 h
Description: as §3, §4

[15] = antibiotic 4000 µg/mL, NO-pretreatment 25% MIC 4 h
[16] = tobramycin 16 µg/mL, NO-pretreatment 4 h
[17] = AR 542, antibiotic 500 µg/mL, NO-pretreatment 25% MIC 4 h

NC[C@H]1O[C@H](O[C@H]2[C@H](O)[C@@H](O[C@H]3O[C@H](CO)[C@@H](O)[C@H](N)[C@H]3O)[C@H](N)C[C@@H]2N)[C@H](N)C[C@@H]1O [Tobramycin]
tobramycin-susceptibility with the addition of NO ([1]; NO-pretreatment): significant improvement
Classification [1, 15]: Synergistic
Log Difference in bacteria viability with vs without NO-pretreatment [1, 15]: 4.09 log
interaction of tobramycin-NO combination [2]: synergistically
interaction of tobramycin-NO combination [3]: synergistically
interaction of tobramycin-NO combination [4]: indifferent
interaction of tobramycin-NO combination [5]: indifferent
Classification [6]: Synergistic
Log Difference in bacteria viability with vs without NO-pretreatment [6]: 4.08 log
Classification [7]: Synergistic
Log Difference in bacteria viability with vs without NO-pretreatment [7]: 3.54 log
MICn ([8]; ATCC MRSA, after n = 10 passages): 16000 µg/mL
development of tobramycin-resistance ([8]; MRSA, concomitant delivery with COS/NO at 25% of its MIC): slowing or prevention
change of tobramycin MIC on parallel exposures ([8]; MRSA, tobramycin alone, serial passages): increases
MIC ([8]; Staphylococcus aureus, MRSA, read-out: MIC0): 2000 µg/mL (≈ 4.28 mM)
changes in tobramycin-susceptibility of biofilm ([9]; NO-pretreatment lasting less than 4 h): Minimal changes
Classification [9, 16]: Synergistic
Log Difference in biofilm viability with vs without NO-pretreatment [9, 16]: 4.71 log
tobramycin-susceptibility with the addition of NO ([10]; ATCC S. aureus, NO-pretreatment): significant improvement
Log Difference in bacteria viability with vs without NO-pretreatment ([10]; ATCC S.aureus, antibiotic […], NO-pretreatment 25% MIC 4 h): 4.88 log
Log Difference in bacteria viability with vs without NO-pretreatment ([11]; ATCC BCC, antibiotic […], NO-pretreatment 25% MIC 4 h): 5.23 log
tobramycin-susceptibility with the addition of NO ([11]; B. cepacia complex, NO-pretreatment): significant improvement
Classification [12, 17]: Synergistic
Log Difference in bacteria viability with vs without NO-pretreatment [12, 17]: 2.29 log
tobramycin-susceptibility with the addition of NO ([12]; K. pneumoniae AR 542, NO-pretreatment): significant improvement
Classification (ΣFIC) [13]: Additive
ΣFIC (median fractional inhibitory concentration index) [13]: 0.625
tobramycin susceptibility of biofilms after NO-pretreatment [14]: significantly more susceptible; also recorded: improved
